Experimental data from patent US7566712B2, “Biaryl piperazinyl-pyridine analogues” (Neurogen Corporation, priority 2003, dated 2009).

Each compound was assayed against T1, human capsaicin receptor (Homo sapiens, UniProt Q8NER1) (assay: Calcium mobilization assay, determination of antagonist activity (Example 6)). Conditions: Table II; IC50 determined as described in Example 6.
T1 construct: pBK-CMV expression construct encoding the full length human capsaicin receptor; expressed in transfected cells
T1 sequence (Q8NER1 whole entry): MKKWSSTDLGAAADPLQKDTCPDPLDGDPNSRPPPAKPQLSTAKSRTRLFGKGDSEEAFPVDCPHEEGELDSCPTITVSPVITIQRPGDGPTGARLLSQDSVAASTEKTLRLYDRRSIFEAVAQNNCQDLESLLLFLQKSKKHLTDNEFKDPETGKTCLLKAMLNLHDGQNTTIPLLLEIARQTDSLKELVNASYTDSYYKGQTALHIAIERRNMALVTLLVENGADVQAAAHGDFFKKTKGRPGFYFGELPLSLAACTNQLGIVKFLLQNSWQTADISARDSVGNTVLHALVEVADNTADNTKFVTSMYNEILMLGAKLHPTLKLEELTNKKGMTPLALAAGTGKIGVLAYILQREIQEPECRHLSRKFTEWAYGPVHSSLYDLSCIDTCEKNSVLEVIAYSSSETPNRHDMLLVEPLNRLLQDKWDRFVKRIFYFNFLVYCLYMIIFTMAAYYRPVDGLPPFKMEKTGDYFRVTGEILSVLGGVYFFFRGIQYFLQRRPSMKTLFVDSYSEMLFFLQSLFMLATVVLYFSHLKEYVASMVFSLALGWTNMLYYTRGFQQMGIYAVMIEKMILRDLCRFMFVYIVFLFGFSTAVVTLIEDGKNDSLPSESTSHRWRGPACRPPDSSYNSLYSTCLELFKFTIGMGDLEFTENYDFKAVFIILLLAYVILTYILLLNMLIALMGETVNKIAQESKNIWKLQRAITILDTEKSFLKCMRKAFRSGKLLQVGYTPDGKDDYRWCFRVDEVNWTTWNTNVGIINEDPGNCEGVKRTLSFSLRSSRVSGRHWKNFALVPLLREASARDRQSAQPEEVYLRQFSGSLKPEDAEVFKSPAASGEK
Format: cell-based
Description: A cDNA encoding full length human capsaicin receptor (SEQ ID NO: 1, 2 or 3 of U.S. Pat. No. 6,482,611) was subcloned in the plasmid pBK-CMV (Stratagene, La Jolla, Calif.) for recombinant expression in mammalian cells.
Human embryonic kidney (HEK293) cells were transfected with the pBK-CMV expression construct encoding the full length human capsaicin receptor using standard methods. The transfected cells were selected for two weeks in media containing G418 (400 μg/ml) to obtain a pool of stably transfected cells. Independent clones were isolated from this pool by limiting dilution to obtain clonal stable cell lines for use in subsequent experiments.
This Example illustrates representative calcium mobilization assays for use in evaluating test compounds for agonist and antagonist activity.
Cells transfected with expression plasmids (as described in Example 4) and thereby expressing human capsaicin receptor are seeded and grown to 70-90% confluency in FALCON black-walled, clear-bottomed 96-well plates (#3904, BECTON-DICKINSON, Franklin Lakes, N.J.). The culture medium is emptied from the 96 well plates and FLUO-3 AM calcium sensitive dye (Molecular Probes, Eugene, Oreg.) is added to each well (dye solution: 1 mg FLUO-3 AM, 440 μL DMSO and 440 pi 20% pluronic acid in DMSO, diluted 1:250 in Krebs-Ringer HEPES (KRH) buffer (25 mM HEPES, 5 mM KCl, 0.96 mM NaH2PO4, 1 mM MgSO4, 2 mM CaCl2, 5 mM glucose, 1 mM probenecid, pH 7.4), 50 μl diluted solution per well). Plates are covered with aluminum foil and incubated at 37° C. for 1-2 hours in an environment containing 5% CO2. After the incubation, the dye is emptied from the plates, and the cells are washed once with KRH buffer, and resuspended in KRH buffer.
To measure the ability of a test compound to agonize or antagonize a calcium mobilization response in cells expressing capsaicin receptors to capsaicin or other vanilloid agonist, the EC50 of the agonist capsaicin is first determined. An additional 20 μl of KRH buffer and 1 μl DMSO is added to each well of cells, prepared as described above. 100 μl capsaicin in KRH buffer is automatically transferred by the FLIPR instrument to each well. Capsaicin-induced calcium mobilization is monitored using either FLUOROSKAN ASCENT (Labsystems; Franklin, Mass.) or FLIPR (fluorometric imaging plate reader system; Molecular Devices, Sunnyvale, Calif.) instruments. Data obtained between 30 and 60 seconds after agonist application are used to generate an 8-point concentration response curve, with final capsaicin concentrations of 1 nM to 3 μM. KALEIDAGRAPH software (Synergy Software, Reading, Pa.) is used to fit the data to the equation: y=a*(1/(1+(b/x)^c)) to determine the 50% excitatory concentration (EC50) for the response. In this equation, y is the maximum fluorescence signal, x is the concentration of the agonist or antagonist (in this case, capsaicin), a is the Emax, b corresponds to the EC50 value and c is the Hill coefficient. Determination of Agonist Activity
Test compounds are dissolved in DMSO, diluted in 20 μl KRH buffer so that the final concentration of test compounds in the assay well is between 1 μM and 5 μM, and added to cells prepared as described above. The 96 well plates containing prepared cells and test compounds are incubated in the dark, at room temperature for 0.5 to 6 hours. It is important that the incubation not continue beyond 6 hours. Just prior to determining the fluorescence response, 100 pi capsaicin in KRH buffer at twice the EC50 concentration determined as described above is automatically added by the FLIPR instrument to each well of the 96 well plate for a final sample volume of 200 μl and a final capsaicin concentration equal to the EC50. The final concentration of test compounds in the assay wells is between 1 μM and 5 μM. […]

**Q.** For `FC(F)(F)c1cccc(-c2nc(N3CCOCC3)nc(N3CCN(c4ncccc4C(F)(F)F)CC3)n2)c1` [Example 438, 2-morpholin-4-yl-4-[3-(trifluoromethyl)phenyl]-6-{4-[3-(trifluoromethyl)pyridin-2-yl]piperazin-1-yl}-1,3,5-triazine], which IC50 is on record?
**A.** ≤ 1000 nM

**Q.** How did the IC50 turn out when `Fc1ccc(-c2cc(N3CCN(c4ncccc4C(F)(F)F)CC3)nc(OCC3CCNC3)n2)cc1Cl` (centres unmarked) [Example 560, 4-(3-chloro-4-fluorophenyl)-2-(pyrrolidin-3-ylmethoxy)-6-{4-(3-(trifluoromethyl)pyridin-2-yl]piperazin-1-yl}pyrimidine] was run?
**A.** ≤ 1000 nM

**Q.** With `C[C@@H]1CN(c2ncccc2C(F)(F)F)CCN1c1cc(-c2ccc(Cl)cc2)nc(N2CCOCC2)n1` [Example 484, 4-(4-(4-chlorophenyl)-6-{(2R)-2-methyl-4-[3-(trifluoromethyl)pyridin-2-yl]piperazin-1-yl}pyrimidin-2-yl)morpholine] as the compound, how does the IC50 read?
**A.** ≤ 1000 nM

**Q.** `Fc1ccc(-c2cc(N3CCN(c4ncccc4C(F)(F)F)CC3)nc(O[C@H]3CCOC3)n2)cc1Cl` [Example 545, 4-(3-chloro-4-fluorophenyl)-2-[(3S)-tetrahydrofuran-3-yloxy]-6-{4-[3-(trifluoromethyl)pyridin-2-yl]piperazin-1-yl}pyrimidine] was tested. Which IC50 did it give?
**A.** ≤ 1000 nM

**Q.** For `C[C@@H]1CN(c2ncccc2Cl)CCN1c1cc(-c2ccccc2)nc(N2CCOCC2)n1` [Example 479, 4-{4-[(2R)-4-(3-chloropyridin-2-yl)-2-methylpiperazin-1-yl]-6-phenylpyrimidin-2-yl}morpholine], which IC50 is on record?
**A.** ≤ 1000 nM

Same assay, conditions: Table II; IC50 determined as described in Example 6 (antagonist activity, calcium mobilization)

**Q.** Which IC50 does the source give for `COc1ncc(Cl)c(N2CCN(c3cc(-c4ccc(F)cc4)nc(N4CCOCC4)n3)[C@H](C)C2)n1` [Example 972, 4-[4-[(2R)-4-(5-chloro-2-methoxypyrimidin-4-yl)-2-methylpiperazin-1-yl]-6-(4-fluorophenyl)pyrimidin-2-yl]morpholine] here?
**A.** ≤ 1000 nM

**Q.** How did the IC50 turn out when `C[C@H]1CN(c2nccnc2Cl)CCN1c1cc(-c2ccc(F)c(Cl)c2)nc(N2CCOCC2)n1` [Example 975, 4-{4-(3-chloro-4-fluorophenyl)-6-[(2S)-4-(3-chloropyrazin-2-yl)-2-methylpiperazin-1-yl]pyrimidin-2-yl}morpholine] was run?
**A.** ≤ 1000 nM

Same assay, conditions: Table II; determined as described in Example 6 (antagonist activity); "*" = 1 micromolar or less

**Q.** Which IC50 does the source give for `O=C(O)CCc1ccc(-c2cc(N3CCN(c4ncccc4C(F)(F)F)CC3)nc(N3CCOCC3)n2)cc1` [Example 849, 3-[4-(2-morpholin-4-yl-6-{4-[3-(trifluorormethyl)pyridin-2-yl]piperazin-1-yl}pyrimidin-4-yl)phenyl]propanoic acid] here?
**A.** ≤ 1000 nM

**Q.** For `CC(C)c1cc(-c2cc(N3CCN(c4ncccc4C(F)(F)F)CC3)nc(N3CCCC3C)n2)ccn1` (centres unmarked) [Example 796, 4-(2-isopropylpyridin-4-yl)-2-(2-methylpyrrolidin-1-yl)-6-{4-[3-(trifluoromethyl)pyridin-2-yl]piperazin-1-yl}pyrimidine], which IC50 is on record?
**A.** ≤ 1000 nM

**Q.** For `COc1cnc(N2CCN(c3cc(-c4ccc(F)c(Cl)c4)nc(N4CCCC4C)n3)CC2)c(C)c1` (centres unmarked) [Example 818, 4-(3-chloro-4-fluorophenyl)-6-[4-(5-methoxy-3-methylpyridin-2-yl)piperazin-1-yl]-2-(2-methylpyrrolidin-1-yl)pyrimidine], which IC50 is on record?
**A.** ≤ 1000 nM

**Q.** How did the IC50 turn out when `O=C1CNCCN1c1nc(-c2ccc(F)c(Cl)c2)cc(N2CCN(c3ncccc3C(F)(F)F)CC2)n1` [Example 884, 1-(4-(3-chloro-4-f1uorophenyl)-6-{4-[3-(trifluoromethyl)pyridin-2-yl]piperazin-1-yl}pyrimidin-2-yl)piperazin-2-one] was run?
**A.** ≤ 1000 nM

**Q.** Which IC50 does the source give for `COC[C@@H]1CCCN1c1nc(-c2cncc(Cl)c2)cc(N2CCN(c3ncccc3Cl)C[C@H]2C)n1` [Example 854, 4-(5-chloropyridin-3-yl)-6-[(2R)-4-(3-chloropyridin-2-yl)-2-methylpiperazin-1-yl]-2-[(2S)-2-(methoxymethyl)pyrrolidin-1-yl]pyrimidine] here?
**A.** ≤ 1000 nM

**Q.** Which IC50 does the source give for `Cc1cc(-c2cc(N3CCN(c4nccnc4Cl)C[C@H]3C)nc(N3CCCC3)n2)ccc1F` [Example 914, 4-[(2R)-4-(3-chloropyrazin-2-yl)-2-methylpiperazin-1-yl]-6-(4-fluoro-3-methylphenyl)-2-pyrrolidin-1-ylpyrimidine] here?
**A.** ≤ 1000 nM

**Q.** How did the IC50 turn out when `C[C@@H]1CN(c2nccnc2Cl)CCN1c1cc(-c2ccc(F)c(F)c2)nc(N2CCCC2)n1` [Example 820, 4-[(2R)-4-(3-chloropyrazin-2-yl)-2-methylpiperazin-1-yl]-6-(3,4-difluorophenyl)-2-pyrrolidin-1-ylpyrimidine] was run?
**A.** ≤ 1000 nM

Same assay, conditions: determined as described in Example 6 (calcium mobilization, antagonist activity); Table II

**Q.** How did the IC50 turn out when `Cc1cc(-c2cc(N3CCN(c4ncccc4C(F)(F)F)CC3)nc(N3CCCCS3(=O)=O)n2)ccc1F` [Example 685, 2-(4-(4-fluoro-3-methylphenyl)-6-{4-[3-(trifluoromethyl)pyridin-2-yl]piperazin-1-yl}pyrimidin-2-yl)-1,2-thiazinane 1,1-dioxide] was run?
**A.** ≤ 1000 nM

**Q.** How did the IC50 turn out when `Cc1cccnc1-c1nc(-c2ccc(F)c(Cl)c2)cc(N2CCN(c3ncccc3C(F)(F)F)CC2)n1` [Example 616, 4-(3-chloro-4-fluorophenyl)-2-(3-methylpyridin-2-yl)-6-{4-[3-(trifluoromethyl)pyridin-2-yl]piperazin-1-yl}pyrimidine] was run?
**A.** ≤ 1000 nM

**Q.** `CN(C)C[C@@H]1CCCN1c1nc(-c2ccc(F)c(Cl)c2)cc(N2CCN(c3ncccc3C(F)(F)F)CC2)n1` [Example 712, 1-[(2S)-1-(4-(3-chloro-4-fluorophenyl)-6-{4-[3-(trifluoromethyl)pyridin-2-yl]piperazin-1-yl}pyrimidin-2-yl)pyrrolidin-2-yl]-N,N-dimethylmethanamine] was tested. Which IC50 did it give?
**A.** ≤ 1000 nM

**Q.** `CC1CCCN1c1nc(-c2ccc(F)c(Cl)c2)cc(N2CCN(c3ncccc3C(F)(F)F)C[C@H]2C)n1` (stereo partly drawn) [Example 764, 4-(3-chloro-4-fluorophenyl)-2-(2-methylpyrrolidin-1-yl)-6-{(2R)-2-methyl-4-[3-(trifluoromethyl)pyridin-2-yl]piperazin-1-yl}pyrimidine] was tested. Which IC50 did it give?
**A.** ≤ 1000 nM

**Q.** `Cc1cc(-c2cc(N3CCN(c4ncccc4Cl)CC3)nc(N3CCCC3C)n2)ccc1F` (centres unmarked) [Example 698, 4-[4-(3-chloropyridin-2-yl)piperazin-1-yl]-6-(4-fluoro-3-methylphenyl)-2-(2-methylpyrrolidin-1-yl)pyrimidine] was tested. Which IC50 did it give?
**A.** ≤ 1000 nM

**Q.** `OC[C@H]1CCCN1c1nc(-c2ccc(F)c(Cl)c2)cc(N2CCN(c3ncccc3C(F)(F)F)CC2)n1` [Example 610, [(2R)-1-(4-(3-chloro-4-fluorophenyl)-6-{4-[3-(trifluoromethyl)pyridin-2-yl]piperazin-1-yl}pyrimidin-2-yl)pyrrolidin-2-yl]methanol] was tested. Which IC50 did it give?
**A.** ≤ 1000 nM

**Q.** For `CC(=N)N1CCN(c2nc(-c3ccc(F)c(Cl)c3)cc(N3CCN(c4ncccc4C(F)(F)F)CC3)n2)CC1` [Example 663, 1-[4-(4-(3-chloro-4-fluorophenyl)-6-{4-[3-(trifluoromethyl)pyridin-2-yl]piperazin-1-yl}pyrimidin-2-yl)piperazin-1-yl]ethanimine], which IC50 is on record?
**A.** ≤ 1000 nM

**Q.** How did the IC50 turn out when `O=C1CN(c2nc(-c3ccc(F)c(Cl)c3)cc(N3CCN(c4ncccc4C(F)(F)F)CC3)n2)CCN1` [Example 654, 4-(4-(3-chloro-4-fluorophenyl)-6-{4-[3-(trifluoromethyl)pyridin-2-yl]piperazin-1-yl}pyrimidin-2-yl)piperazin-2-one] was run?
**A.** ≤ 1000 nM

**Q.** For `CC1CN(c2nc(-c3ccc(F)c(Cl)c3)cc(N3CCN(c4ncccc4C(F)(F)F)CC3)n2)CCN1C` (centres unmarked) [Example 634, 4-(3-chloro-4-fluorophenyl)-2-(3,4-dimethylpiperazin-1-yl)-6-{4-[3-(trifluoromethyl)pyridin-2-yl]piperazin-1-yl}pyrimidine], which IC50 is on record?
**A.** ≤ 1000 nM
